This note sets out measurements from patent publication US10941177B2, “2′-substituted carba-nucleoside analogs for antiviral treatment” (Gilead Sciences, Inc., priority 2012, dated 2021).

Read-outs that look alike come from different tables or passages of the source.

Test [1] deals with Influenza A virus PC/1/73. Briefly: microbe, parasite or virus in culture. The following applies: read-out: Infl A PC/1/73 EC50. In kind it is cell-based.
Test [2] deals with Influenza B virus B/Lee/40. Briefly: Normal Human Bronchial/Tracheal Epithelial Cell Influenza Infection Assay (EC50), Influenza B Lee/40. To be noted: Normal Human Bronchial/Tracheal Epithelial Cells, 10 MOI, five day incubation, neuramidase substrate fluorescence, read-out: Infl B Lee/40 EC50. The class given is cell-based. Here is the method:
Normal Human Bronchial/Tracheal Epithelial Cell Influenza Infection Assay (EC50)
Normal Human Bronchial/Tracheal Epithelial Cells (Lonza, Basel Switzerland) are seeded to 384-well plates at a density of 4000 cells per well in BEGM medium supplemented with growth factors (Lonza, Basel Switzerland). Medium is removed next day, and cells are washed three times with 100 μL of RPMI+1% BSA (RPMI-BSA). 30 μL of RPMI-BSA is added to cells thereafter. Compounds are 3-fold serially diluted in DMSO, and 0.4 μL of compound dilutions are stamped to plates. Influenza A virus HK/8/68 (Advanced Biotechnology Inc, Columbia, Md., 13.5 MOI), PC/1/73 (ATCC Manassas, Va., 0.3 MOI) and Influenza B virus B/Lee/40 ((ATCC Manassas, Va., 10 MOI) are added to cells in 10 μL of RPMI-BSA medium supplemented with 8 ug/mL trypsin (Worthington, Lakewood, N.J.). After a five day incubation, 40 μL of buffer containing 66 mM Mes pH 6.5, 8 mM CaCl2, 0.5% NP-40 and 100 μM neuramidase substrate (2′-(4-Methylumbelliferyl)-α-D-N-acetylneuraminic acid sodium salt hydrate, Sigma Aldrich, St. Luis, Mo.) is added to cells. Fluorescence of the product of hydrolysis is read using excitation at 360 nm and emission at 450 nm after a 1 hour incubation at 37° C. EC50 values are calculated by non-linear regression of multiple data sets.

In a further test the target is Influenza RNA polymerase (Influenza A virus, UniProt P03431). Nature of the test: Influenza RNA Polymerase Inhibition (IC50) Assay. In kind it is biochemical. The following applies: virus lysate of Influenza A/PR/8/34 (H1N1), 30° C. for 90 minutes, α-33P labeled NTP incorporation. Here is the method: Influenza RNA Polymerase Inhibition (IC50) Assay
Influenza A/PR/8/34 (H1N1) purified virus was obtained from Advanced Biotechnologies Inc. (Columbia, Md.) as suspension in PBS buffer. Virions were disrupted by exposure to an equal volume of 2% Triton X-100 for 30 minutes at room temperature in a buffer containing 100 mM Tris-HCl, pH 8, 200 mM KCl, 3 mM dithiothreitol [DTT], 10% glycerol, 10 mM MgCl2, 2 U/mL RNasin Ribonuclease Inhibitor, and 2 mg/mL Lysolechithin type V (Sigma, Saint Louis, Mo.). The virus lysate was stored at −80° C. in aliquots.
The concentrations refer to final concentrations unless mentioned otherwise. Nucleotide analog inhibitors were serially diluted 3 fold in water and added to reaction mix containing 10% virus lysate (v/v), 100 mM Tris-HCl (pH 8.0), 100 mM KCl, 1 mM DTT, 10% glycerol, 0.25% Triton-101 (reduced), 5 mM MgCl2, 0.4 U/mL RNasin, and 200 μM ApG dinucleotide primer (TriLink, San Diego Calif.). […]
Reactions were incubated at 30° C. for 90 minutes then spotted onto DE81 filter paper. Filters were air dried, washed 0.125 M Na2HPO4 (3×), water (1×), and EtOH (1×), and air dried before exposed to Typhoon phosphor imager and radioactivity was quantified on a Typhoon Trio (GE Healthcare, Piscataway N.J.). […]

A word on the IC50: it is the concentration that gives 50% inhibition. The low end stands for inhibition by little substance, the high end for a need for much substance.

As to `Nc1nc(N)c2ncc(C3OC(CO)C(O)C3F)n2n1` [Compound 6, (2S,3S,4R,5R)-5-(2,4-diaminoimidazo[1,2-f][1,2,4]triazin-7-yl)-4-fluoro-2-(hydroxymethyl)tetrahydrofuran-3-ol], the EC50 in test [1] was 21 µM; in test [2] it was 51 µM.
Turning to `Nc1nn2c([C@@H]3O[C@H](COP(=O)(O)OP(=O)(O)OP(=O)(O)O)[C@@H](O)[C@H]3F)cnc2c(=O)[nH]1` [Compound 8, ((2R, 3R, 4R, 5S)-5-(2-amino-4-oxo-3,4-dihydroimidazo[1,2-J][1,2,4]triazin-7-yl)-4-fluoro-3-hydroxy-3-hydroxytetrahydrofuran-2-yl)methyl tetrahydrogen triphosphate], the IC50 on Influenza RNA polymerase turned out to be 2.8 µM.
Regarding `CCOc1nc(N)nn2c([C@@H]3O[C@H](CO)[C@@H](O)[C@H]3F)cnc12` [Compound 18, (2R,3R,4R,5S)-5-(2-amino-4-ethoxyimidazo[1,2-f][1,2,4]triazine-7-yl)-4-fluoro-2-(hydroxymethyl)tetrahydrofuran-3-ol], the EC50 in test [1] and in test [2] was greater than 200 µM throughout.
In the case of `Nc1nc(F)nn2c([C@@H]3O[C@H](CO)[C@@H](O)[C@H]3F)cnc12` [Compound 12, (2R,3R,4R,5S)-5-(4-amino-2-fluoroimidazo[1,2-f][1,2,4]triazin-7-yl)-4-fluoro-2-(hydroxymethyl)tetrahydrofuran-3-ol], the EC50 in test [1] and in test [2] was greater than 100 µM in each case.
With `Nc1ncnn2c([C@H]3O[C@@H](CO)[C@H](O)[C@H]3F)cnc12` [Compound 10, (2S,3S,4R,5R)-5-(4-aminoimidazo[1,2-f][1,2,4]triazin-7-yl)-4-fluoro-2-(hydroxymethyl)tetrahydrofuran-3-ol], the EC50 in test [1] and in test [2] was 0.9 µM in each case.
For the compound `Nc1nn2c([C@@H]3O[C@H](CO)[C@@H](O)[C@@H]3F)cnc2c(=O)[nH]1` [Compound 7], the EC50 in test [1] was determined as 27 µM; in test [2] it was 37 µM.
Turning to `COc1nc(N)nn2c([C@@H]3O[C@H](CO)[C@@H](O)[C@H]3F)cnc12` [Compound 19, (2R,3R,4R,5S)-5-(2-amino-4-methoxyimidazo[1,2-f][1,2,4]triazin-7-yl)-4-fluoro-2-(hydroxymethyl)tetrahydrofuran-3-ol], the EC50 in test [1] (Influenza A virus, Epithelial cell, 120 h) stood at 30 µM; in test [2] (Influenza B virus, Epithelial cell, 120 h) it was 36 µM.
